Assay: mn = molality of the nth substance listed, in mol/kg
Settings: 101 kPa, Liquid; for mass density: Vibrating tube method; for electrical conductivity: Wheatstone bridge equipment

C[N+](C)(C)CCCl.[Cl-] [2-chloro-N,N,N-trimethylethanaminium chloride] + O
Settings	electrical conductivity [S/m]	mass density [kg/m3]	viscosity [mPa·s]
278.15 K, m1 = 0.0236	–	–	1.526
278.15 K, m1 = 0.0464	–	–	1.536
278.15 K, m1 = 0.0506	–	1001.45	–
278.15 K, m1 = 0.0994	–	–	1.555
278.15 K, m1 = 0.1009	–	1002.89	–
278.15 K, m1 = 0.2364	–	1006.79	–
278.15 K, m1 = 0.2464	–	–	1.61
278.15 K, m1 = 0.3552	–	–	1.656
278.15 K, m1 = 0.499	–	–	1.712
278.15 K, m1 = 0.501	–	1013.92	–
278.15 K, m1 = 0.6479	–	–	1.778
278.15 K, m1 = 0.6523	–	1017.88	–
278.15 K, m1 = 0.7493	–	–	1.815
278.15 K, m1 = 0.7529	–	1020.46	–
278.15 K, m1 = 0.9041	–	–	1.914
278.15 K, m1 = 0.9927	–	–	1.933
278.15 K, m1 = 1.176	–	–	2.01
278.15 K, m1 = 1.2	–	1031.18	–
278.15 K, m1 = 1.497	–	1038.13	–
278.15 K, m1 = 1.542	–	–	2.298
278.15 K, m1 = 1.986	–	1048.24	–
278.15 K, m1 = 2.148	–	–	2.612
288.15 K, m1 = 0.0236	–	–	1.148
288.15 K, m1 = 0.0464	–	–	1.156
288.15 K, m1 = 0.0506	–	1000.52	–
288.15 K, m1 = 0.0994	–	–	1.172
288.15 K, m1 = 0.1009	–	1001.9	–
288.15 K, m1 = 0.2364	–	1005.65	–
288.15 K, m1 = 0.2464	–	–	1.211
288.15 K, m1 = 0.3552	–	–	1.241
288.15 K, m1 = 0.499	–	–	1.286
288.15 K, m1 = 0.501	–	1012.48	–
288.15 K, m1 = 0.6479	–	–	1.335
288.15 K, m1 = 0.6523	–	1016.28	–
288.15 K, m1 = 0.7493	–	–	1.362
288.15 K, m1 = 0.7529	–	1018.75	–
288.15 K, m1 = 0.9041	–	–	1.433
288.15 K, m1 = 0.9927	–	–	1.447
288.15 K, m1 = 1.176	–	–	1.502
288.15 K, m1 = 1.2	–	1029.02	–
288.15 K, m1 = 1.497	–	1035.68	–
288.15 K, m1 = 1.542	–	–	1.708
288.15 K, m1 = 1.986	–	1045.39	–
288.15 K, m1 = 2.148	–	–	1.932
298.15 K, m1 = 0.0236	–	–	0.907
298.15 K, m1 = 0.0277	0.265	–	–
298.15 K, m1 = 0.0464	–	–	0.913
298.15 K, m1 = 0.0506	–	998.426	–
298.15 K, m1 = 0.0514	0.49	–	–
298.15 K, m1 = 0.0994	–	–	0.924
298.15 K, m1 = 0.1003	0.898	–	–
298.15 K, m1 = 0.1009	–	999.762	–
298.15 K, m1 = 0.2364	–	1003.4	–
298.15 K, m1 = 0.2464	–	–	0.955
298.15 K, m1 = 0.2497	1.97	–	–
298.15 K, m1 = 0.3502	2.58	–	–
298.15 K, m1 = 0.3552	–	–	0.977
298.15 K, m1 = 0.499	–	–	1.012
298.15 K, m1 = 0.5001	3.36	–	–
298.15 K, m1 = 0.501	–	1010.02	–
298.15 K, m1 = 0.6479	–	–	1.047
298.15 K, m1 = 0.6509	4.1	–	–
298.15 K, m1 = 0.6523	–	1013.7	–
298.15 K, m1 = 0.7493	–	–	1.069
298.15 K, m1 = 0.7498	4.51	–	–
298.15 K, m1 = 0.7529	–	1016.09	–
298.15 K, m1 = 0.8997	5.07	–	–
298.15 K, m1 = 0.9041	–	–	1.124
298.15 K, m1 = 0.9927	–	–	1.133
298.15 K, m1 = 0.9998	5.42	–	–
298.15 K, m1 = 1.176	–	–	1.173
298.15 K, m1 = 1.2	–	1026.04	–
298.15 K, m1 = 1.212	6.08	–	–
298.15 K, m1 = 1.497	–	1032.48	–
298.15 K, m1 = 1.507	6.81	–	–
298.15 K, m1 = 1.542	–	–	1.292
298.15 K, m1 = 1.986	–	1041.87	–
298.15 K, m1 = 1.998	7.67	–	–
298.15 K, m1 = 2.148	–	–	1.493
308.15 K, m1 = 0.0236	–	–	0.711
308.15 K, m1 = 0.0464	–	–	0.714
308.15 K, m1 = 0.0506	–	995.387	–
308.15 K, m1 = 0.0994	–	–	0.722
308.15 K, m1 = 0.1009	–	996.694	–
308.15 K, m1 = 0.2364	–	1000.25	–
308.15 K, m1 = 0.2464	–	–	0.757
308.15 K, m1 = 0.3552	–	–	0.77
308.15 K, m1 = 0.499	–	–	0.793
308.15 K, m1 = 0.501	–	1006.72	–
308.15 K, m1 = 0.6479	–	–	0.831
308.15 K, m1 = 0.6523	–	1010.32	–
308.15 K, m1 = 0.7493	–	–	0.833
308.15 K, m1 = 0.7529	–	1012.65	–
308.15 K, m1 = 0.9041	–	–	0.879
308.15 K, m1 = 0.9927	–	–	0.89
308.15 K, m1 = 1.176	–	–	0.915
308.15 K, m1 = 1.2	–	1022.36	–
308.15 K, m1 = 1.497	–	1028.63	–
308.15 K, m1 = 1.542	–	–	1.005
308.15 K, m1 = 1.986	–	1037.78	–
308.15 K, m1 = 2.148	–	–	1.158
318.15 K, m1 = 0.0236	–	–	0.596
318.15 K, m1 = 0.0464	–	–	0.595
318.15 K, m1 = 0.0506	–	991.452	–
318.15 K, m1 = 0.0994	–	–	0.602
318.15 K, m1 = 0.1009	–	992.837	–
318.15 K, m1 = 0.2364	–	996.273	–
318.15 K, m1 = 0.2464	–	–	0.645
318.15 K, m1 = 0.3552	–	–	0.66
318.15 K, m1 = 0.499	–	–	0.661
318.15 K, m1 = 0.501	–	1002.68	–
318.15 K, m1 = 0.6479	–	–	0.694
318.15 K, m1 = 0.6523	–	1006.2	–
318.15 K, m1 = 0.7493	–	–	0.691
318.15 K, m1 = 0.7529	–	1008.52	–
318.15 K, m1 = 0.9041	–	–	0.733
318.15 K, m1 = 0.9927	–	–	0.75
318.15 K, m1 = 1.176	–	–	0.759
318.15 K, m1 = 1.2	–	1018.06	–
318.15 K, m1 = 1.497	–	1024.21	–
318.15 K, m1 = 1.542	–	–	0.835
318.15 K, m1 = 1.986	–	1033.17	–
318.15 K, m1 = 2.148	–	–	0.948

O [water] + C[N+](C)(C)CCO.[Cl-]
Settings	mass density [kg/m3]
278.15 K, m2 = 0	999.961
